Source: ChEMBL document CHEMBL4028815, “Novel phosphonate analogs of sulforaphane: Synthesis, in vitro and in vivo anticancer activity” (Eur J Med Chem, 2017)

What was measured:
LoVo [1] = experiment: Potency index, ratio of sulforaphane IC50 to compound IC50 for human LoVo cells; type: functional
LoVo [2] = experiment: Potency index, ratio of benzyl isothiocyanate IC50 to compound IC50 for human LoVo cells; type: functional
[3] = Cytotoxicity against human LoVo/DX cells after 72 hrs by sulforhodamine B assay; type: functional, cell-based
LoVo [4] = experiment: Cytotoxicity against human LoVo cells after 72 hrs by sulforhodamine B assay; type: functional, cell-based
Mus musculus [5] = experiment: Hepatotoxicity in BALB/c mdb mouse implanted with mouse 4T1 cells assessed as liver weight at 100 umol/kg, ip administered five times weekly measured at 29 day post cell innoculum (reference value: 1.2 +/- 0.13 g); type: toxicity, organism-based; conditions: in vivo, 696 h
Mus musculus [6] = experiment: Toxicity in BALB/c mdb mouse implanted with mouse 4T1 cells assessed as spleen weight at 100 umol/kg, ip administered five times weekly measured at 29 day post cell innoculum (reference value: 0.603 +/- 0.133 g); type: organism-based; conditions: in vivo, 696 h
[7] = Resistance index, ratio of IC50 for human LoVo/DX cells to IC50 for human LoVo cells; type: functional
4T1 [8] = experiment: Anti-tumor activity against mouse 4T1 cells implanted in BALB/c mdb mouse assessed as lung metastasis at 100 umol/kg, ip administered five times weekly measured at 29 days post cell innoculum (reference value: 56 +/- 25); type: functional
Mus musculus [9] = experiment: Toxicity in BALB/c mdb mouse implanted with mouse 4T1 cells assessed as serum creatinine level at 100 umol/kg, ip administered five times weekly measured at 29 day post cell innoculum (reference value: 9.3 +/- 1.2 umol/L); type: organism-based; conditions: in vivo, 696 h
Mus musculus [10] = experiment: Toxicity in BALB/c mdb mouse implanted with mouse 4T1 cells assessed as serum ALT level at 100 umol/kg, ip administered five times weekly measured at 29 day post cell innoculum (reference value: 23.8 +/- 2.2 U/L); type: organism-based; conditions: in vivo, 696 h
4T1 [11] = experiment: Anti-tumor activity against mouse 4T1 cells implanted in BALB/c mdb mouse assessed as tumor growth inhibition at 100 umol/kg, ip administered five times weekly measured on day 15 post cell innoculum relative to control; type: functional; conditions: 4T1, ip, 360 h, read-out: TGI
Mus musculus [12] = experiment: Toxicity in BALB/c mdb mouse implanted with mouse 4T1 cells assessed as serum PLT level at 100 umol/kg, ip administered five times weekly measured at 29 day post cell innoculum (reference value: 972 +/- 157 10^3/uL); type: organism-based; conditions: in vivo, 696 h
4T1 [13] = experiment: Anti-tumor activity against mouse 4T1 cells implanted in BALB/c mdb mouse assessed as tumor growth inhibition at 100 umol/kg, ip administered five times weekly measured on day 29 post cell innoculum relative to control; type: functional; conditions: 4T1, ip, 696 h, read-out: TGI
Mus musculus [14] = experiment: Toxicity in BALB/c mdb mouse implanted with mouse 4T1 cells assessed as WBC level at 100 umol/kg, ip administered five times weekly measured at 29 day post cell innoculum (reference value: 212.3 +/- 82.8 10^3/uL); type: organism-based; conditions: in vivo, 696 h
Mus musculus [15] = experiment: Toxicity in BALB/c mdb mouse implanted with mouse 4T1 cells assessed as serum AST level at 100 umol/kg, ip administered five times weekly measured at 29 day post cell innoculum (reference value: 136 +/- 10.3 U/L); type: organism-based; conditions: in vivo, 696 h
Mus musculus [16] = experiment: Toxicity in BALB/c mdb mouse implanted with mouse 4T1 cells assessed as lung weight at 100 umol/kg, ip administered five times weekly measured at 29 day post cell innoculum (reference value: 0.2 +/- 0.018 g); type: organism-based; conditions: in vivo, 696 h
Mus musculus [17] = experiment: Toxicity in BALB/c mdb mouse implanted with mouse 4T1 cells assessed as hematocrit at 100 umol/kg, ip administered five times weekly measured at 29 day post cell innoculum (reference value: 39.9 +/- 3.7 %); type: organism-based; conditions: in vivo, 696 h
Mus musculus [18] = experiment: Toxicity in BALB/c mdb mouse implanted with mouse 4T1 cells assessed as RBC level at 100 umol/kg, ip administered five times weekly measured at 29 day post cell innoculum (reference value: 8.6 +/- 0.9 10^6/uL); type: organism-based; conditions: in vivo, 696 h
Mus musculus [19] = experiment: Toxicity in BALB/c mdb mouse implanted with mouse 4T1 cells assessed as serum urea level at 100 umol/kg, ip administered five times weekly measured at 29 day post cell innoculum (reference value: 3.8 +/- […]); type: organism-based; conditions: in vivo, 696 h
Mus musculus [20] = experiment: Nephrotoxicity in BALB/c mdb mouse implanted with mouse 4T1 cells assessed as kidney weight at 100 umol/kg, ip administered five times weekly measured at 29 day post cell innoculum (reference value: 0.136 +/- 0.006 g); type: toxicity, organism-based; conditions: in vivo, 696 h
Mus musculus [21] = experiment: Toxicity in BALB/c mdb mouse implanted with mouse 4T1 cells assessed as body weight loss at 100 umol/kg, ip administered five times weekly measured 3 times weekly during compound dosing; type: organism-based; conditions: in vivo
Mus musculus [22] = experiment: Toxicity in BALB/c mdb mouse implanted with mouse 4T1 cells assessed as hemoglobin level at 100 umol/kg, ip administered five times weekly measured at 29 day post cell innoculum (reference value: 15.1 +/- 1.5 g/dl); type: organism-based; conditions: in vivo, 696 h
HL-60 = experiment: Cytotoxicity against human HL60 cells after 72 hrs by sulforhodamine B assay; type: functional, cell-based; conditions: HL-60, 72 h
[23] = Resistance index, ratio of IC50 for human HL60/MX2 cells to IC50 for human HL60 cells; type: functional
HL60/MX2 = experiment: Cytotoxicity against human HL60/MX2 cells after 72 hrs by sulforhodamine B assay; type: functional, cell-based; conditions: HL60/MX2, 72 h

CC(C)OP(=O)(CCCCN=C=S)OC(C)C
Ratio IC50 (LoVo [1]): 10 | Ratio IC50 (LoVo [2]): 5 | IC50 [3]: 5 µM | IC50 (LoVo [4]): 2.5 µM

CCOP(=O)(CCCN=C=S)OCC
Ratio IC50 (LoVo [1]): 10 | Ratio IC50 (LoVo [2]): 5 | IC50 [3]: 3 µM | IC50 (LoVo [4]): 2.9 µM

O=P(CCCCCN=C=S)(OCC(F)(F)F)OCC(F)(F)F
IC50 [3]: 10.5 µM | IC50 (LoVo [4]): 5.4 µM

CC(C)COP(=O)(CCCCN=C=S)OCC(C)C
IC50 [3]: 10.4 µM | IC50 (LoVo [4]): 3.3 µM

CC(C)OP(=O)(CCN=C=S)OC(C)C
Ratio IC50 (LoVo [1]): 10 | Ratio IC50 (LoVo [2]): 5 | IC50 [3]: 3.6 µM | IC50 (LoVo [4]): 2.7 µM

COP(=O)(CCCCN=C=S)OC
IC50 [3]: 6.5 µM | IC50 (LoVo [4]): 5.4 µM

CC[C@H](C)OP(=O)(CCCCN=C=S)O[C@@H](C)CC
IC50 [3]: 4.5 µM | IC50 (LoVo [4]): 4.2 µM

O=P(CCCCN=C=S)(OCC1CCCO1)OCC1CCCO1 (configuration not stated)
IC50 [3]: 7.6 µM | IC50 (LoVo [4]): 5 µM

CC(C)COP(=O)(CCCCCCN=C=S)OCC(C)C
Activity (Mus musculus [5]): 1.25 g | Activity (Mus musculus [6]): 0.578 g | Ratio IC50 [7]: 3.4 | Activity (4T1 [8]): 58 | Activity (Mus musculus [9]): 8.2 µmol/L | Activity (Mus musculus [10]): 33.1 U/L | inhibition in vivo at 100 µmol/kg (4T1 [11]): 31% | Ratio IC50 (LoVo [1]): 10 | Activity (Mus musculus [12]): 831 ×10³ /uL | inhibition in vivo at 100 µmol/kg (4T1 [13]): 14.3% | Activity (Mus musculus [14]): 311.2 ×10³ /uL | Activity (Mus musculus [15]): 153.6 U/L | Activity (Mus musculus [16]): 0.199 g | Activity (Mus musculus [17]): 53% | Activity (Mus musculus [18]): 10.8 ×10⁶ /uL | Activity (Mus musculus [19]): 5.2 mmol/L | Ratio IC50 (LoVo [2]): 5 | IC50 [3]: 9.2 µM | IC50 (LoVo [4]): 2.7 µM | Activity (Mus musculus [20]): 0.127 g | Activity (Mus musculus [21]): <= 10% | Activity (Mus musculus [22]): 19.2 g/dL

CC(C)COP(=O)(CCCN=C=S)OCC(C)C
Ratio IC50 (LoVo [1]): 10 | Ratio IC50 (LoVo [2]): 5 | IC50 [3]: 5.6 µM | IC50 (LoVo [4]): 2.4 µM

C=CCN=C=S [ALLYL ISOTHIOCYANATE]
IC50 [3]: 29.3 µM | IC50 (LoVo [4]): 21.2 µM

CCC(C)OP(=O)(CCCCN=C=S)OC(C)CC (configuration not stated)
IC50 [3]: 3.6 µM | IC50 (LoVo [4]): 4.3 µM

O=P(CCCCCCN=C=S)(OCc1ccccc1)OCc1ccccc1
IC50 [3]: 9.2 µM | IC50 (LoVo [4]): 4.6 µM

CC(C)(C)COP(=O)(CCCCCCN=C=S)OCC(C)(C)C
IC50 [3]: 11.2 µM | IC50 (LoVo [4]): 7.4 µM

CC(C)(C)COP(=O)(CCCN=C=S)OCC(C)(C)C
IC50 [3]: 14 µM | IC50 (LoVo [4]): 10.2 µM

CC(C)(C)COP(=O)(CCCCCN=C=S)OCC(C)(C)C
IC50 [3]: 10.8 µM | IC50 (LoVo [4]): 8.9 µM

C#CCOP(=O)(CCCCN=C=S)OCC#C
IC50 [3]: 11.3 µM | IC50 (LoVo [4]): 3.2 µM

O=C1c2c(O)ccc(O)c2C(=O)c2c(NCCNCCO)ccc(NCCNCCO)c21 [MITOXANTRONE]
IC50 (HL-60): 0.004 µM | Ratio IC50 [23]: 37 | IC50 (HL60/MX2): 0.148 µM

CC(C)OP(=O)(CCCN=C=S)OC(C)C
Ratio IC50 (LoVo [1]): 10 | Ratio IC50 (LoVo [2]): 5 | IC50 [3]: 3.3 µM | IC50 (LoVo [4]): 2.6 µM

CC(C)[C@@H]1CC[C@@H](C)C[C@H]1OP(=O)(CCCCN=C=S)O[C@@H]1C[C@H](C)CC[C@H]1C(C)C
IC50 [3]: 5.8 µM | IC50 (LoVo [4]): 5.1 µM

O=P(CCCCN=C=S)(Oc1ccccc1)Oc1ccccc1
Ratio IC50 (LoVo [1]): 10 | Ratio IC50 (LoVo [2]): 5 | IC50 [3]: 3.1 µM | IC50 (LoVo [4]): 2.3 µM

CC(C)(C)COP(=O)(CCCCN=C=S)OCC(C)(C)C
IC50 [3]: 10.6 µM | IC50 (LoVo [4]): 10.2 µM
